Tests used:
[1] = target: T1, GST-ΔPH-Akt1 (Homo sapiens, UniProt P31749); test: Biochemical ΔPH Akt1 assay (flashplate, 33P-ATP, histone 2B); details: GST-ΔPH-Akt1, histone 2B substrate, 100 nM ATP, 80 minutes at 30° C.; read-out: Akt inhibition: IC50 (inhibition of deltaPHAkt1)
T1 construct: named GST-deltaPH-Akt1; 107480aa; cloned in the pAcG1 vector; made in house; host or cells: SF9 insect cells (pAcG1 vector), co-expressed with PDK1
Description: For the biochemical assay ΔPHAkt1 was used devoid of its PH domain as a GST fusion protein (named GST-deltaPH-Akt1; 107480aa; cloned in the pAcG1 vector (BD Biosciences Pharmingen)), co-expressed with PDK1 in SF9 insect cells. The protein was purified using glutathion-affinity chromatography by standard protocols.
In order to study the inhibition of Akt according to the invention, a flashplate-based assay has been developed.
The Akt1 assay is a biochemical assay using Akt1 devoid of its PH domain and co-expressed with PDK1 in insect cells. The GST-ΔPH-Akt1 assay is run in 96 well plates by incubating 100 ng/well GST-ΔPH-Akt1, 100 ng/well histone 2B (Roche, #223514) as substrate, 10 μl of compound of invention (test compounds were dissolved as 10 mM solutions in dimethylsulfoxide (DMSO) and subsequently diluted) and 100 nM ATP (including ^33P-ATP) in 100 μl of reaction buffer ([…], pH7.5; 3 mM MgCl2; 3 mM MnCl2; 3 μM Na-Orthovanadat; 1 mM DTT; 1 μg/ml PEG8000) for 80 minutes at 30° C. The reactions are terminated by adding 100 μl stopping buffer (2% H3PO4 for 5 minutes) and are washed 3 times by using washing buffer (0.9% NaCl). Relying on the incorporation of ^33P into the protein substrate histone 2B, the detection is based on the adhesion of the phosphorylated protein to the surface of scintillator-coated flash plates (NEN, USA; #SMP-200). This phosphorylation is measured by counting the plate for 60 sec. using a plate reader (Wallac Microbeta; Perkin Elmer, USA). The analysis of the data is performed using a biostatistical program (GraphPad Prism, USA).

[2] = test system: MCF7 cells; test: Cellular proliferation/cytotoxicity assay (Alamar Blue), MCF7; type: cell-based; details: Homo sapiens; MCF7, 48 hours, Alamar Blue (Resazurin); read-out: Anti-proliferative/cytotoxic activity: IC50 MCF7
Description: (§1) The anti-proliferative activity of the compounds as described herein, is evaluated using MCF7 and MDA-MB-468 (ATCC HTB-22 and HTB-132) cell lines and the Alamar Blue (Resazurin) cell viability assay (O'Brien et al. Eur J Biochem 267, 5421-5426, 2000). Resazurin is reduced to the fluorescent rescrufin by cellular dehydrogenase activity, correlating with viable, proliferating cells. Test compounds are dissolved as 10 mM solutions in DMSO and subsequently diluted. MCF7 or […] cells were seeded into 96 well flat bottom plates at a density of 10000 cells/well (MCF7) or 5000 cells/well (MDA-MB-468) in a volume of 200 μl/well. 24 hours after seeding, 1 μl each of the compound dilutions are added into each well of the 96 well plates. Each compound dilution is tested as at least as duplicates. Wells containing untreated control cells were filled with 200 μl DMEM containing 0.5% v:v DMSO. The cells are then incubated with the substances for 48 hours at 37° C. in a humidified atmosphere containing 5% carbon dioxide. To determine cell viability, 20 μl of a Resazurin solution (Sigma; 90 mg/l) are added. After 4 hours incubation at 37° C. the fluorescence is measured at an extinction of 544 nm and an emission of 590 nm (Wallac Victor2; Perkin Elmer, USA). For the calculation of the cell viability the emission value from untreated cells is set as 100% viability and the emission rates of treated cells are set in relation to the values of untreated cells. Viabilities are expressed as % values. The corresponding IC50 values of the compounds for cytotoxic activity are determined from the concentration-effect curves by means of non-linear regression. The analysis of the data is performed using a biostatistical program (GraphPad Prism, USA).

[3] = test system: MDA-MB-468 cells; test: Cellular proliferation/cytotoxicity assay (Alamar Blue), MDA-MB-468; type: cell-based; details: Homo sapiens; MDA-MB-468, 48 hours, Alamar Blue (Resazurin); read-out: Anti-proliferative/cytotoxic activity: IC50 MDA468
Description: as §1

T1 sequence (P31749 107-480 limits assumed, stated change not applied): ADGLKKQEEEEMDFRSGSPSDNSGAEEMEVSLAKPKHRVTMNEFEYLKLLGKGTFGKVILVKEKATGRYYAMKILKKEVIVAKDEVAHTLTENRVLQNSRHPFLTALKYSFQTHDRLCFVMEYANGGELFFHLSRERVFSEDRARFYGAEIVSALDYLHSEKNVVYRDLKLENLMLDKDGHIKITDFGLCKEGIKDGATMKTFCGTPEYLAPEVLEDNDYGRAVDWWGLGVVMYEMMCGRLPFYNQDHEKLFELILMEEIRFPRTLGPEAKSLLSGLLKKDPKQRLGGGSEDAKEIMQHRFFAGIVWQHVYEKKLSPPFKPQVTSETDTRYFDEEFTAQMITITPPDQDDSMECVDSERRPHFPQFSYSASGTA

Row | Compound | melting point | IC50 [1] | IC50 [2] | IC50 [3]
1 | CN(C)c1ccc(C(=O)Nc2cccc(Nc3cc(-c4cccc5c4oc4ccccc45)ncn3)c2)cc1 [Compound 42, N-[3-(6-Dibenzofuran-4-yl-pyrimidin-4-ylamino)-phenyl]-4-dimethylamino-benzamide] | > 250 °C | ≤ 5 µM | – | –
2 | N=C(N)c1ccc(C(=O)Nc2ccc(Nc3cc(-c4cccc5c4oc4ccccc45)ncn3)cc2)cc1 [Compound 47, 4-Carbamimidoyl-N-[4-(6-dibenzofuran-4-yl-pyrimidin-4-ylamino)-phenyl]-benzamide] | – | – | ≤ 16.6 µM | ≤ 6.05 µM
3 | Nc1ccccc1C(=O)Nc1cccc(Nc2cc(-c3cccc4c3oc3ccccc34)ncn2)c1.O=C(O)C(F)(F)F [Compound 59, 2-Amino-N-[3-(6-dibenzofuran-4-yl-pyrimidin-4-ylamino)-phenyl]-benzamide trifluoroacetate] | 140 to 150 °C | ≤ 5 µM | – | –
4 | O=C(Nc1ccc(Nc2cc(-c3cccc4c3oc3ccccc34)ncn2)cc1)c1ccc2c(c1)CCNC2.O=C(O)C(F)(F)F [Compound 78, 1,2,3,4-Tetrahydro-isoquinoline-6-carboxylic acid [4-(6-dibenzofuran-4-yl-pyrimidin-4-ylamino)-phenyl]-amide trifluoroacetate] | 146 °C | ≤ 5 µM | ≤ 16.6 µM | ≤ 6.05 µM
5 | O=C(Nc1ccc(Nc2cc(-c3cccc4c3oc3ccccc34)ncn2)cc1)c1ccc(Cl)c(Cl)c1 [Compound 9, 3,4-Dichloro-N-[4-(6-dibenzofuran-4-yl-pyrimidin-4-ylamino)-phenyl]-benzamide] | 317 to 321 °C | ≤ 5 µM | – | –
6 | NCc1cccc(C(=O)Nc2ccc(Nc3cc(-c4cccc5c4oc4ccccc45)ncn3)cc2)c1.O=C(O)C(F)(F)F [Compound 54, 3-Aminomethyl-N-[4-(6-dibenzofuran-4-yl-pyrimidin-4-ylamino)-phenyl]-benzamide trifluoroacetate] | 238 to 240 °C | – | ≤ 16.6 µM | ≤ 6.05 µM
7 | Cc1ccc(NC(=O)c2ccc(CN)cc2)cc1Nc1cc(-c2cccc3c2oc2ccccc23)ncn1.O=C(O)C(F)(F)F [Compound 67, 4-Aminomethyl-N-[3-(6-dibenzofuran-4-yl-pyrimidin-4-ylamino)-4-methyl-phenyl]-benzamide trifluoroacetate] | 180 to 185 °C | ≤ 5 µM | – | –
8 | N=C(N)c1cccc(C(=O)Nc2ccc(Nc3cc(-c4cccc5c4oc4ccccc45)ncn3)cc2)c1 [Compound 45, 3-Carbamimidoyl-N-[4-(6-dibenzofuran-4-yl-pyrimidin-4-ylamino)-phenyl]-benzamide] | 300 to 306 °C | – | ≤ 16.6 µM | ≤ 6.05 µM
9 | Nc1ccc(C(=O)Nc2cccc(Nc3cc(-c4cccc5c4oc4ccccc45)ncn3)c2)cc1.O=C(O)C(F)(F)F [Compound 62, 4-Amino-N-[3-(6-dibenzofuran-4-yl-pyrimidin-4-ylamino)-phenyl]-benzamide trifluoroacetate] | 185 to 188 °C | ≤ 5 µM | – | –
10 | Nc1cccc(C(=O)Nc2ccc(Nc3cc(-c4cccc5c4oc4ccccc45)ncn3)cc2)c1.O=C(O)C(F)(F)F [Compound 51, 3-Amino-N-[4-(6-Dibenzofuran-4-yl-pyrimidin-4-ylamino)-phenyl]-benzamide trifluoroacetate] | 140 to 147 °C | ≤ 5 µM | – | –

Further lines, with some results ahead:

Row | melting point | IC50 [1] | Compound | IC50 [2] | IC50 [3]
11 | – | ≤ 5 µM | N#Cc1ccc(C(=O)Nc2ccc(Nc3cc(-c4cccc5c4oc4ccccc45)ncn3)cc2)cc1 [Compound 46, 4-Cyano-N-[4-(6-dibenzofuran 4-yl-pyrimidin-4-ylamino)-phenyl]-benzamide] | – | –
12 | 130 to 140 °C | – | CNCc1ccc(C(=O)Nc2ccc(Nc3cc(-c4cccc5c4oc4ccccc45)ncn3)cc2)cc1.O=C(O)C(F)(F)F [Compound 63, N-[4-(6-Dibenzofuran-4-yl-pyrimidin-4-ylamino)-phenyl]-4-methylaminomethyl-benzamide trifluoroacetate] | ≤ 16.6 µM | ≤ 6.05 µM
13 | 140 to 147 °C | – | O=C(Nc1ccc(Nc2cc(-c3cccc4c3oc3ccccc34)ncn2)cc1)c1ccc(C2CCCNC2)cc1.O=C(O)C(F)(F)F (centres unmarked) [Compound 52, N-[4-(6-Dibenzofuran-4-yl-pyrimidin-4-ylamino)-phenyl]-4-piperidin-3-yl-benzamide trifluoroacetate] | ≤ 16.6 µM | ≤ 6.05 µM
14 | 299 °C | ≤ 5 µM | CN(C)Cc1ccc(C(=O)Nc2ccc(Nc3cc(-c4cccc5c4oc4ccccc45)ncn3)cc2)cc1 [Compound 12, N-[4-(6-Dibenzofuran-4-yl-pyrimidin-4-ylamino)-phenyl]-4-dimethylaminomethyl-benzamide] | – | –
15 | > 250 °C | ≤ 5 µM | COCCNc1ccc(C(=O)Nc2ccc(Nc3cc(-c4cccc5c4oc4ccccc45)ncn3)cc2)cc1.O=C(O)C(F)(F)F [Compound 71, N-[4-(6-Dibenzofuran-4-yl-pyrimidin-4-ylamino)-phenyl]-4-(2-methoxyethylamino)benzamide trifluoroacetate] | – | –
16 | 250 to 255 °C | ≤ 5 µM | O=C(Nc1ccc(Nc2cc(-c3cccc4c3oc3ccccc34)ncn2)cc1)c1cccc(N2CCCC2)c1 [Compound 6, N-[4-(6-Dibenzofuran-4-yl-pyrimidin-4-ylamino)-phenyl]-3-pyrrolidin-1-ylbenzamide] | – | –
17 | 184 °C (dec.) | ≤ 5 µM | NCc1cncc(C(=O)Nc2ccc(Nc3cc(-c4cccc5c4oc4ccccc45)ncn3)cc2)c1 [Compound 74, 5-Aminomethyl-N-[4-(6-dibenzofuran-4-yl-pyrimidin-4-ylamino)-phenyl]-nicotinamide] | – | –
18 | 164 to 170 °C | ≤ 5 µM | NCc1ccc(C(=O)Nc2ccc(Nc3cc(-c4cccc5c4oc4ccccc45)ncn3)cc2)nc1.O=C(O)C(F)(F)F [Compound 77, 5-Aminomethyl-pyridine-2-carboxylic acid [4-(6-dibenzofuran-4-yl-pyrimidin-4-ylamino)-phenyl]-amide trifluoroacetate] | – | –
19 | 283 to 295 °C | ≤ 5 µM | O=C(Nc1ccc(Nc2cc(-c3cccc4c3oc3ccccc34)ncn2)cc1)c1ccncc1 [Compound 11, N-[4-(6-Dibenzofuran-4-yl-pyrimidin-4-ylamino)-phenyl]-isonicotinamide] | – | –
20 | 150 to 156 °C | ≤ 5 µM | NCc1cccc(C(=O)Nc2cccc(Nc3cc(-c4cccc5c4oc4ccccc45)ncn3)c2)c1.O=C(O)C(F)(F)F [Compound 61, 3-Aminomethyl-N-[3-(6-dibenzofuran-4-yl-pyrimidin-4-ylamino)-phenyl]-benzamide trifluoroacetate] | – | –
21 | > 200 °C (dec.) | ≤ 5 µM | NCc1ccc(C(=O)Nc2ccc(Nc3cc(-c4cccc5c4oc4ccccc45)ncn3)cc2)c(F)c1 [Compound 72, 4-Aminomethyl-N-[4-(6-dibenzofuran-4-yl-pyrimidin-4-ylamino)-phenyl]-2-fluorobenzamide] | – | –

— patent US7879853B2, “4,6-disubstituted pyrimidines and their use as protein kinase inhibitors” (Bayer Schering Pharma AG, priority 2004, dated 2011)
